Assay: molar heat capacity at constant pressure
Conditions: 101.33 kPa

CCCCc1ccc(C(=O)Oc2ccc(C#N)c(F)c2)cc1 [4-cyano-3-fluorophenyl 4-butylbenzoate]
Conditions | molar heat capacity at constant pressure [J/K/mol]
4.918 K, Crystal 1, Small (less than 1 g) adiabatic calorimetry | 1.032
5 K, Crystal 1, Vacuum adiabatic calorimetry | 1.08
5 K, Crystal 2, Vacuum adiabatic calorimetry | 1.44
5.052 K, Crystal 2, Small (less than 1 g) adiabatic calorimetry | 1.482
5.07 K, Crystal 1, Small (less than 1 g) adiabatic calorimetry | 1.127
5.575 K, Crystal 1, Small (less than 1 g) adiabatic calorimetry | 1.448
5.722 K, Crystal 2, Small (less than 1 g) adiabatic calorimetry | 2.06
5.747 K, Crystal 1, Small (less than 1 g) adiabatic calorimetry | 1.591
6.284 K, Crystal 1, Small (less than 1 g) adiabatic calorimetry | 2.011
6.538 K, Crystal 2, Small (less than 1 g) adiabatic calorimetry | 2.901
6.573 K, Crystal 1, Small (less than 1 g) adiabatic calorimetry | 2.293
7.108 K, Crystal 1, Small (less than 1 g) adiabatic calorimetry | 2.802
7.413 K, Crystal 2, Small (less than 1 g) adiabatic calorimetry | 3.946
7.456 K, Crystal 1, Small (less than 1 g) adiabatic calorimetry | 3.2
8.006 K, Crystal 1, Small (less than 1 g) adiabatic calorimetry | 3.815
8.284 K, Crystal 2, Small (less than 1 g) adiabatic calorimetry | 5.139
8.384 K, Crystal 1, Small (less than 1 g) adiabatic calorimetry | 4.319
8.948 K, Crystal 1, Small (less than 1 g) adiabatic calorimetry | 5.034
9.21 K, Crystal 2, Small (less than 1 g) adiabatic calorimetry | 6.549
9.353 K, Crystal 1, Small (less than 1 g) adiabatic calorimetry | 5.638
9.931 K, Crystal 1, Small (less than 1 g) adiabatic calorimetry | 6.451
10 K, Crystal 1, Vacuum adiabatic calorimetry | 6.56
10 K, Crystal 2, Vacuum adiabatic calorimetry | 7.87
10.23 K, Crystal 2, Small (less than 1 g) adiabatic calorimetry | 8.254
10.31 K, Crystal 1, Small (less than 1 g) adiabatic calorimetry | 7.064
10.88 K, Crystal 1, Small (less than 1 g) adiabatic calorimetry | 7.93
11.24 K, Crystal 2, Small (less than 1 g) adiabatic calorimetry | 10.07
11.26 K, Crystal 1, Small (less than 1 g) adiabatic calorimetry | 8.608
11.81 K, Crystal 1, Small (less than 1 g) adiabatic calorimetry | 9.492
12.23 K, Crystal 1, Small (less than 1 g) adiabatic calorimetry | 10.25
12.28 K, Crystal 2, Small (less than 1 g) adiabatic calorimetry | 12.04
12.81 K, Crystal 1, Small (less than 1 g) adiabatic calorimetry | 11.22
13.24 K, Crystal 1, Small (less than 1 g) adiabatic calorimetry | 12.07
13.39 K, Crystal 2, Small (less than 1 g) adiabatic calorimetry | 14.28
13.89 K, Crystal 1, Small (less than 1 g) adiabatic calorimetry | 13.26
14.32 K, Crystal 1, Small (less than 1 g) adiabatic calorimetry | 14.11
14.71 K, Crystal 2, Small (less than 1 g) adiabatic calorimetry | 17
15.07 K, Crystal 1, Small (less than 1 g) adiabatic calorimetry | 15.49
15.47 K, Crystal 1, Small (less than 1 g) adiabatic calorimetry | 16.32
16.2 K, Crystal 2, Small (less than 1 g) adiabatic calorimetry | 20.27
16.43 K, Crystal 1, Small (less than 1 g) adiabatic calorimetry | 18.21
16.76 K, Crystal 1, Small (less than 1 g) adiabatic calorimetry | 18.95
17.73 K, Crystal 2, Small (less than 1 g) adiabatic calorimetry | 23.69
18.05 K, Crystal 1, Small (less than 1 g) adiabatic calorimetry | 21.6
18.4 K, Crystal 1, Small (less than 1 g) adiabatic calorimetry | 22.4
19.39 K, Crystal 2, Small (less than 1 g) adiabatic calorimetry | 27.53
19.84 K, Crystal 1, Small (less than 1 g) adiabatic calorimetry | 25.4
20 K, Crystal 1, Vacuum adiabatic calorimetry | 25.75
20 K, Crystal 2, Vacuum adiabatic calorimetry | 28.93
20.07 K, Crystal 1, Small (less than 1 g) adiabatic calorimetry | 25.94
21.11 K, Crystal 2, Small (less than 1 g) adiabatic calorimetry | 31.48
21.53 K, Crystal 1, Small (less than 1 g) adiabatic calorimetry | 29.12
21.58 K, Crystal 1, Small (less than 1 g) adiabatic calorimetry | 29.19
22.83 K, Crystal 2, Small (less than 1 g) adiabatic calorimetry | 35.46
23.05 K, Crystal 1, Small (less than 1 g) adiabatic calorimetry | 32.44
23.28 K, Crystal 1, Small (less than 1 g) adiabatic calorimetry | 32.87
24.53 K, Crystal 2, Small (less than 1 g) adiabatic calorimetry | 39.3
24.67 K, Crystal 1, Small (less than 1 g) adiabatic calorimetry | 35.93
24.93 K, Crystal 1, Small (less than 1 g) adiabatic calorimetry | 36.45
26.2 K, Crystal 2, Small (less than 1 g) adiabatic calorimetry | 43.02
26.34 K, Crystal 1, Small (less than 1 g) adiabatic calorimetry | 39.52
26.69 K, Crystal 1, Small (less than 1 g) adiabatic calorimetry | 40.25
27.89 K, Crystal 2, Small (less than 1 g) adiabatic calorimetry | 47.05
27.96 K, Crystal 1, Small (less than 1 g) adiabatic calorimetry | 43.27
28.5 K, Crystal 1, Small (less than 1 g) adiabatic calorimetry | 44.43
29.49 K, Crystal 1, Small (less than 1 g) adiabatic calorimetry | 46.73
29.58 K, Crystal 2, Small (less than 1 g) adiabatic calorimetry | 50.91
30 K, Crystal 1, Vacuum adiabatic calorimetry | 47.75
30 K, Crystal 2, Vacuum adiabatic calorimetry | 51.82
30.38 K, Crystal 1, Small (less than 1 g) adiabatic calorimetry | 48.59
30.97 K, Crystal 1, Small (less than 1 g) adiabatic calorimetry | 49.89
31.27 K, Crystal 2, Small (less than 1 g) adiabatic calorimetry | 54.58
32.25 K, Crystal 1, Small (less than 1 g) adiabatic calorimetry | 52.59
32.3 K, Crystal 1, Small (less than 1 g) adiabatic calorimetry | 52.61
32.73 K, Crystal 2, Small (less than 1 g) adiabatic calorimetry | 57.73
33.42 K, Crystal 1, Small (less than 1 g) adiabatic calorimetry | 55.02
34.08 K, Crystal 2, Small (less than 1 g) adiabatic calorimetry | 60.65
34.18 K, Crystal 1, Small (less than 1 g) adiabatic calorimetry | 56.62
34.66 K, Crystal 1, Small (less than 1 g) adiabatic calorimetry | 57.7
35.58 K, Crystal 2, Small (less than 1 g) adiabatic calorimetry | 63.81
35.96 K, Crystal 1, Small (less than 1 g) adiabatic calorimetry | 60.42
36.15 K, Crystal 1, Small (less than 1 g) adiabatic calorimetry | 60.78
37.11 K, Crystal 2, Small (less than 1 g) adiabatic calorimetry | 67
37.29 K, Crystal 1, Small (less than 1 g) adiabatic calorimetry | 63.17
38.18 K, Crystal 1, Small (less than 1 g) adiabatic calorimetry | 64.88
38.66 K, Crystal 1, Small (less than 1 g) adiabatic calorimetry | 65.91
38.66 K, Crystal 2, Small (less than 1 g) adiabatic calorimetry | 70.19
40 K, Crystal 1, Vacuum adiabatic calorimetry | 68.45
40 K, Crystal 2, Vacuum adiabatic calorimetry | 72.67
40.05 K, Crystal 1, Small (less than 1 g) adiabatic calorimetry | 68.62
40.1 K, Crystal 2, Small (less than 1 g) adiabatic calorimetry | 72.86
40.24 K, Crystal 1, Small (less than 1 g) adiabatic calorimetry | 68.92
41.44 K, Crystal 2, Small (less than 1 g) adiabatic calorimetry | 75.41
41.46 K, Crystal 1, Small (less than 1 g) adiabatic calorimetry | 71.35
42.21 K, Crystal 1, Small (less than 1 g) adiabatic calorimetry | 72.67
42.84 K, Crystal 2, Small (less than 1 g) adiabatic calorimetry | 78.05
42.89 K, Crystal 1, Small (less than 1 g) adiabatic calorimetry | 74.07
44.12 K, Crystal 1, Small (less than 1 g) adiabatic calorimetry | 76.27
44.27 K, Crystal 2, Small (less than 1 g) adiabatic calorimetry | 80.76
44.33 K, Crystal 1, Small (less than 1 g) adiabatic calorimetry | 76.76
45.76 K, Crystal 2, Small (less than 1 g) adiabatic calorimetry | 83.54
45.77 K, Crystal 1, Small (less than 1 g) adiabatic calorimetry | 79.44
46.11 K, Crystal 1, Small (less than 1 g) adiabatic calorimetry | 79.97
47.22 K, Crystal 1, Small (less than 1 g) adiabatic calorimetry | 82.08
47.31 K, Crystal 2, Small (less than 1 g) adiabatic calorimetry | 86.36
48.17 K, Crystal 1, Small (less than 1 g) adiabatic calorimetry | 83.7
48.67 K, Crystal 1, Small (less than 1 g) adiabatic calorimetry | 84.74
48.88 K, Crystal 2, Small (less than 1 g) adiabatic calorimetry | 89.17
50 K, Crystal 1, Vacuum adiabatic calorimetry | 86.93
50 K, Crystal 2, Vacuum adiabatic calorimetry | 91.14
50.13 K, Crystal 1, Small (less than 1 g) adiabatic calorimetry | 87.32
50.27 K, Crystal 1, Small (less than 1 g) adiabatic calorimetry | 87.41
50.47 K, Crystal 2, Small (less than 1 g) adiabatic calorimetry | 91.97
51.6 K, Crystal 1, Small (less than 1 g) adiabatic calorimetry | 89.81
52.07 K, Crystal 2, Small (less than 1 g) adiabatic calorimetry | 94.74
52.41 K, Crystal 1, Small (less than 1 g) adiabatic calorimetry | 91.07
53.06 K, Crystal 1, Small (less than 1 g) adiabatic calorimetry | 92.27
53.69 K, Crystal 2, Small (less than 1 g) adiabatic calorimetry | 97.39
54.53 K, Crystal 1, Small (less than 1 g) adiabatic calorimetry | 94.7
54.59 K, Crystal 1, Small (less than 1 g) adiabatic calorimetry | 94.68
55.31 K, Crystal 2, Small (less than 1 g) adiabatic calorimetry | 100.11
56.01 K, Crystal 1, Small (less than 1 g) adiabatic calorimetry | 97.07
56.79 K, Crystal 1, Small (less than 1 g) adiabatic calorimetry | 98.21
56.94 K, Crystal 2, Small (less than 1 g) adiabatic calorimetry | 102.73
57.48 K, Crystal 1, Small (less than 1 g) adiabatic calorimetry | 99.44
58.59 K, Crystal 2, Small (less than 1 g) adiabatic calorimetry | 105.37
58.96 K, Crystal 1, Small (less than 1 g) adiabatic calorimetry | 101.75
58.97 K, Crystal 1, Small (less than 1 g) adiabatic calorimetry | 101.63
60 K, Crystal 1, Vacuum adiabatic calorimetry | 103.22
60 K, Crystal 2, Vacuum adiabatic calorimetry | 107.66
60.24 K, Crystal 2, Small (less than 1 g) adiabatic calorimetry | 108.04
60.44 K, Crystal 1, Small (less than 1 g) adiabatic calorimetry | 104.07
61.09 K, Crystal 1, Small (less than 1 g) adiabatic calorimetry | 104.91
61.9 K, Crystal 2, Small (less than 1 g) adiabatic calorimetry | 110.62
